Tested on: melanoma B16 tumors overexpressing OVA antigen (B16-OVA)
Conditions: mouse, in vivo

NS(=O)(=O)OC[C@@H]1C[C@H](n2ccc3c(N[C@H]4CCc5ccccc54)ncnc32)C[C@@H]1O [pevonedistat, ((1S,2S,4S)-4-(4-(((S)-2,3-dihydro-1H-inden-1-yl)amino)-7H-pyrrolo[2,3-d]pyrimidin-7-yl)-2-hydroxycyclopentyl) methyl sulfamate]
survival: significantly prolonged survival
